Paper PMC6616128, “Liquiritin, as a Natural Inhibitor of AKR1C1, Could Interfere With the Progesterone Metabolism” (Frontiers in Physiology, 2019)
Where a chain is given by its changes, count along the chain named. Like-named read-outs stand apart in the source and are kept apart here.

What was measured:
recombinant AKR1C2 = molecular target: T1, recombinant AKR1C2 (Homo sapiens, UniProt P52895); assay: Enzyme activity (NADPH) assay with s-tetralol, recombinant GST-AKR1C2; assay type: biochemical; details: s-tetralol 103.30 μM as substrate
T1 construct: made in house; host or cells: Escherichia coli JM109
T1 sequence (P52895 1-323): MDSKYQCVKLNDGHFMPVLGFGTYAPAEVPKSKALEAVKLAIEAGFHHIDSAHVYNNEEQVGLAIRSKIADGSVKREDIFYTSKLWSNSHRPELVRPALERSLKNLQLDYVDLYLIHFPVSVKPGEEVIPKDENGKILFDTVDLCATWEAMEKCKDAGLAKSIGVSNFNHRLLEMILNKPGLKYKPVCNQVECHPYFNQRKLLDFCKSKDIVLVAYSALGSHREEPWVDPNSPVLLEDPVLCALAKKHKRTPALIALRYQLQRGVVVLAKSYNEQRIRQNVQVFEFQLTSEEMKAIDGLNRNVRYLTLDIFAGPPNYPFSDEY
Protocol: (§1) Protein concentrations were determined using the Bradford protein assay kit.
(§2) To screen for the indicated inhibitor, the assay mixture was added with additional DMSO or 2 μM compounds. […] The inhibition patterns were determined by fitting initial velocity and inhibitor concentration into inhibition models using Graphpad Prism 6.0. All inhibition data were obtained from single experiments, with samples conducted in duplicate.
(§3) Each experiment was repeated three times and the differences among means were significant determined by Student t-text (^∗p < 0.05; ^∗∗p < 0.01; ^∗∗∗p < 0.001).

AKR1C1 [1] = molecular target: T2, AKR1C1 (Homo sapiens, UniProt Q04828); assay: Enzyme activity (NADPH) assay with s-tetralol, recombinant GST-AKR1C1; assay type: biochemical; design: made in house; host or cells: Escherichia coli JM109;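 note: GST-fused AKR1C1 expressed in E. coli and purified by glutathione affinity, control wells received DMSO instead of compound, duplicate samples from a single experiment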
T2 sequence (Q04828 1-323): T1 sequence (P52895 1-323) with V38T, H47R, V54L, S87C, M151V, H170R, L172Q
Protocol: GST-tagged recombinant AKR1C isoforms expressed JM109 was grown in Luria-Bertani broth (100 μg⋅ml-1 ampicillin, pH = 7.0) at 37°C with orbital shaking at 220 rpm. When cells achieved an OD600 nm between 0.4 and 0.6, 0.3 mM final concentration of isopropyl β-D-1-thiogalactopyranoside (IPTG) was added to the cultures and incubated for an additional 12 h at 25°C. Cells were harvested by centrifugation at 8000 g for 10 min, and the cell pellets were stored at -80°C for storage. The pellets were resuspended in 1 × PBS, pH = 7.4 and lysed by ultrasonication at ice-cold temperature using an UH-03 union instrument. The purification of glutathione-S-transferase (GST)-fusion AKR1C1, AKR1C2, and AKR1C3 were then carried out using ÄKTA systems from GE Healthcare as described in Handbook. The recombinant proteins were eluted in 50 mM Tris–HCl (pH = 8.0) with 20 mM reduced glutathione, fresh preparedly. Protein concentrations were determined using the Bradford protein assay kit. All proteins were aliquoted and stored at -80°C containing 20% glycerol.
as §2
Firstly, we overexpressed recombinant human AKR1C in E. coli in the form of a GST-fusion protein, and then purified it by affinity chromatography on glutathione-Sepharose.
To screen for the inhibitors of AKR1C1, we developed a readily accessible indirect NADPH generating-based assay that can be used for high-throughput inhibitors screening. […] Wells were included containing enzyme and no inhibitor or 2 μM inhibitor.

recombinant AKR1C3 = molecular target: T3, recombinant AKR1C3 (Homo sapiens, UniProt P42330); assay: biochemical
T3 sequence (P42330 1-323): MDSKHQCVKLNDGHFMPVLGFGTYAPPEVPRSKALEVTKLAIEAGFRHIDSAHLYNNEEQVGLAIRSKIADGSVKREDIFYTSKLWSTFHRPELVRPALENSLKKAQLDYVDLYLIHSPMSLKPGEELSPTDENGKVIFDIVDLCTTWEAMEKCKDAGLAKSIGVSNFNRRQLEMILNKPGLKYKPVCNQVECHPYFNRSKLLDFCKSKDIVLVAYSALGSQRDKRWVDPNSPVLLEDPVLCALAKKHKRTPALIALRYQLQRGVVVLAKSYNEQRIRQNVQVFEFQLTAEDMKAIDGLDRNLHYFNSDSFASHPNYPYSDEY
Protocol: as §1, §2, §3

AKR1C1 [2] = molecular target: T2, AKR1C1; assay: Progesterone metabolism in HEC-1-B cells transfected with AKR1C1 plasmid; assay type: cell-based; design: expressed in transfected cells; host or cells: HEC-1-B cells; details: 50 μM compound, 5 μM progesterone, 6 h
Protocol: HEC-1-B cell line was purchased from the Cell Bank of the Chinese Academy of Sciences (Shanghai, China). HEC-1-B cell was cultured in DMEM (Gibco, Grand Island, New York, United States) supplemented with 10% fetal bovine serum at 37°C in a 5% CO2 incubator. In all experiments, the cells were used at passages 4 to 10. The cells were transfected with AKR1C1 plasmid using jet PRIME reagent (Polyplus) according to manufacturer’s instructions. […] The culture media were collected immediately and 6 h later. […] A LC-20A High Performance liquid chromatography (Shimadzu, Japan) with UV detector was used for analyzing progesterone cultured from the cells. […] The mobile phase used was a mixture of mobile phase A and mobile phase B in an isocratic program as 3:7 running on an Agilent HC C18 column (150 mm × 4.6 mm, 5 μm particle size) at a constant temperature of 35°C. The flow rate was 1.0 mL/min and the detection wavelength was 245 nm. The whole analytical period was 10 min for each sample. The standard (progesterone) was dissolved in methanol. […]
Therefore, we choose to transfect cells with AKR1C1 gene for cellular study. […] Each experiment was repeated three times and the differences among means were significant determined by Student t-text (^∗p < 0.05; ^∗∗p < 0.01; ^∗∗∗p < 0.001).

IC50 (recombinant AKR1C2): 610 ± 50 nM
remaining activity at 2 µM (AKR1C1 [1]; 2 μM compound, Figure 1A, read-out: % Enzyme Activity): 31%
slope (AKR1C1 [1]; 2 μM compound, Supplementary Table 1, CON 0.0122): 0.003777
enzyme activity (AKR1C1 [1]; 2 μM compound, Supplementary Table 1, CON 192.295568): 59.5351 nmol/min/mg
remaining activity at 2 µM (AKR1C1 [1]; 2 μM compound, Supplementary Table 1, CON = 1, read-out: ratio (activity relative to CON)): 31%
inhibition at 2 µM (AKR1C1 [1]; 2 μM compound, Supplementary Table 1, read-out: % inhibition): 69%
inhibition at 2 µM (AKR1C1 [1]; 2 μM compound, text on Figure 1A, read-out: inhibitory effect over AKR1C1 enzyme activity (% inhibition)): 34%
inhibition pattern (AKR1C1 [1]; s-tetralol concentration variation): competitive inhibitor
IC50 ratio 1C1/1C2 (AKR1C1 [1]; selectivity AKR1C1 vs AKR1C2): 1.03
IC50 ratio 1C1/1C3 (AKR1C1 [1]; selectivity AKR1C1 vs AKR1C3): 0.17
IC50 (recombinant AKR1C3): 3720 ± 90 nM
inhibition at 50 µM (AKR1C1 [2]): 85%
Compound: O=C1C[C@@H](c2ccc(O[C@@H]3O[C@H](CO)[C@@H](O)[C@H](O)[C@H]3O)cc2)Oc2cc(O)ccc21 [Liquiritin]
